Results reported in patent EP3643303A1, “COMPOUNDS FOR USE IN THE TREATMENT OR PREVENTION OF FIBROTIC DISEASES; PHARMACEUTICAL, COSMETIC COMPOSITIONS AND USES THEREOF” (InnovativeHealth Group SL, priority 2018, dated 2020).

What was measured:
[1] = test system: CB1; settings: Bisogno et al. 2001; cited from earlier work
[2] = test system: Il13, IL1β, IL6, CCL2, TGFβ and IL4; test: Real-time quantitative PCR of inflammatory and fibrotic cytokines in skin of BLM mice; assay type: in vivo; settings: mRNA, 2^-ΔΔCt, Figure 11
Description: Total RNA was isolated from mice frozen skin tissue using QIAzol lysis reagent (Qiagen, Hilden, Germany) and purified with RNeasy mini kit (Qiagen). Total RNA (1 µg) was retrotranscribed using the iScript™ cDNA Synthesis Kit (Bio-Rad), and the cDNA generated was analysed by real-time PCR using the iQTM SYBR Green Supermix (Bio-Rad) using a CFX96 Real-Time PCR Detection System (Bio-Rad). […] The GAPDH housekeeping gene was used to standardize the mRNA expression levels in every sample. Expression levels were calculated using the 2^-ΔΔCt method. Gene expression were normalized to GADPH mRNA levels in each sample and expressed using the 2^-ΔΔCt method. Table 1. List of mouse primer sequences used in quantitative Polymerase Chain Reaction

[3] = test system: activated hepatic stellate cells; settings: Lim et al. 2011; cited from earlier work
[4] = test system: diabetes-associated myocardial fibrosis; settings: Rajesh et al. 2010; cited from earlier work
[5] = biological target: TRPV-1 (Homo sapiens, UniProt Q8NER1); test: Capsaicin-induced intracellular calcium mobilization (Fura-2) in HEK-293T-TRPV1 cells; assay type: cell-based; design: expressed in transfected cells; host or cells: HEK-293T; settings: capsaicin 1 µM; Fura-2 AM; Figure 2A
Chain of TRPV-1 (Q8NER1 whole entry): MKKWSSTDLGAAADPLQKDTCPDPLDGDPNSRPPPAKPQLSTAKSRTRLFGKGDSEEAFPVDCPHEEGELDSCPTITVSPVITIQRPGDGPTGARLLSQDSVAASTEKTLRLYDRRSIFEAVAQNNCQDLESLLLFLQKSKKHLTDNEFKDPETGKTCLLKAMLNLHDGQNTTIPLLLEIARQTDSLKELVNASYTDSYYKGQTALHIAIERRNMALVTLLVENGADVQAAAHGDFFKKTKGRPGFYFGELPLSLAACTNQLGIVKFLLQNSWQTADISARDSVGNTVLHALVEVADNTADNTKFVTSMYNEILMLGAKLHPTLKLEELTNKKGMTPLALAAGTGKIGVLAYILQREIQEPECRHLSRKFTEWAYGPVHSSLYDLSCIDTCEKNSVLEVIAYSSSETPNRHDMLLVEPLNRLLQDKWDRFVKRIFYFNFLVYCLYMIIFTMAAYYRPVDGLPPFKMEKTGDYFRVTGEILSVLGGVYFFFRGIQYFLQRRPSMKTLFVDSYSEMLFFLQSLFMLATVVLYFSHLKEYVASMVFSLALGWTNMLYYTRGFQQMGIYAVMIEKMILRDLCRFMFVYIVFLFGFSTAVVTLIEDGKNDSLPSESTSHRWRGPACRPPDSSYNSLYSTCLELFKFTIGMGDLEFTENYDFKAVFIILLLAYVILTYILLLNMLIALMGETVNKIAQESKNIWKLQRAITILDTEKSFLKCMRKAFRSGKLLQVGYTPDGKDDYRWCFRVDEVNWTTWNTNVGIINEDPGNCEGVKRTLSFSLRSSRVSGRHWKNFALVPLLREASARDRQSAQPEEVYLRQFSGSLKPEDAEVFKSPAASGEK
Description: Next, the effect of (+)CBD and (-)CBD on TRPV-1 activity was investigated. TRPV-1 is an ionotropic receptor that upon activation by a specific agonist such as capsaicin mobilize intracellular calcium in TRPV-1 expressing cells. Moreover, TRPV-1-induced calcium exerts cytotoxicity in non-neuronal cells overexpressing this receptor. To explore the effect of (+)CBD on calcium mobilization HEK-293T-TRPV1 cells were cultured in 96-well plates (10^3 cells/well) and loaded with Fura 2 acetyoxymethyl ester (Fura-2 AM; 8 µM) (Molecular Probes, Carlsbad, CA) in Dulbecco's modified Eagle's medium (containing 110 mg/l pyruvate) supplemented with 10% FBS and incubated (40 min, 37°C, 5% CO2). The cells were preincubated with (+)CBD and after 15 sec treated with capsaicin (1µM). Changes in intracellular free calcium concentration (intracellular [Ca^2+]free) were measured by digital microscopy equipped with ratiometric recording of single cells. (BD Pathway 855 Bioimager). The field of cells was monitored by sequential dual excitation, 352 and 380 nm, and the analysis of the image ratios used methods described previously to calculate changes in intracellular [Ca^2+]free. The ratio images were acquired every 6 s. At the end of experiments, the cells were exposed to ionomycin (30 s, 1 µM) to obtain a maximal response.

| SMILES | affinity at CB1 receptors [1] | expression levels of CCL2 in the skin [2] | expression levels of IL1β in the skin [2] | expression levels of IL4 in the skin [2] | expression levels of IL6 in the skin [2] | expression levels of Il13 in the skin [2] | expression levels of TGFβ in the skin [2] | cell death of activated hepatic stellate cells [3] | diabetes-associated myocardial fibrosis [4] | capsaicin-induced calcium mobilization [5] |
| --- | --- | --- | --- | --- | --- | --- | --- | --- | --- | --- |
| C=C(C)[C@H]1CCC(C)=C[C@@H]1c1c(O)cc(CCCCC)cc1O [(+)CBD, (+)Cannabidiol] | has been shown to have affinity | – | – | – | – | – | – | – | – | – |
| C=C(C)[C@@H]1CCC(C)=C[C@H]1c1c(O)cc(CCCCC)cc1O [(-)CBD, 2-[(1R,6R)-3-methyl-6-prop-1-en-2-ylcyclohex-2-en-1-yl]-5-pentylbenzene-1,3-diol] | – | significantly reduced | significantly reduced | significantly reduced | significantly reduced | significantly reduced | significantly reduced | induces cell death | attenuates | prevent capsaicin-induced calcium mobilization |
